This passage reports IC50 results from patent US12398120B2, “Substituted hydantoinamides as ADAMTS7 antagonists” (BAYER AKTIENGESELLSCHAFT, priority 2019, dated 2025).

Bounds are passed on as bounds.

This assay deals with ADAMTS4 (Homo sapiens (Human), UniProt O75173). The experiment in a line: Selectivity assay for ADAMTS-7 modulators: ADAMTS4 (FRET substrate). It is filed as biochemical. Conditions: ADAMTS4 (R&D 4307-AD) 50 nM, substrate Dabcyl-EEVKAKVQPY-Glu(Edans)-NH2 1 μM, 120 min, 32° C. The protocol: 1 μl test compound solution (dissolved in DMSO, at the corresponding concentration) or pure DMSO as a control was added per well. The enzymatic reaction was initiated by addition of 25 μl of the respective concentration of the respective FRET substrate (see table 2 below) in reaction buffer.
Chain of ADAMTS4 (O75173 213-685): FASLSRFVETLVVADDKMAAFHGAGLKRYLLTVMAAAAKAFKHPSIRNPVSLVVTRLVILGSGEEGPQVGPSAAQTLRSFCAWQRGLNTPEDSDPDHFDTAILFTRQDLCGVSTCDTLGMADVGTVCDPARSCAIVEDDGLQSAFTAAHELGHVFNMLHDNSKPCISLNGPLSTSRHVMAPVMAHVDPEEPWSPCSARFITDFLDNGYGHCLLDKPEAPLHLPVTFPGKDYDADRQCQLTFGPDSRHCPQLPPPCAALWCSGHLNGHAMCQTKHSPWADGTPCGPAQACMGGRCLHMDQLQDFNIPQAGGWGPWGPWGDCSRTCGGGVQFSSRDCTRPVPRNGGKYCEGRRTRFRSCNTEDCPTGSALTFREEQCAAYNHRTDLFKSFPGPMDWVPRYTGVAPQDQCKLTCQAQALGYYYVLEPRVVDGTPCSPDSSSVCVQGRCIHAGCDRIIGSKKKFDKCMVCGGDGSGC
The increase of fluorescence intensity was measured in appropriate fluorescence plate reader (e.g. TECAN Ultra) using the respective wavelengths for excitation and emission. IC50 values were calculated from percentage of inhibition of enzyme activity as a function of test compound concentration.
The term IC50 denotes the concentration needed to halve the response being measured. Regarding `Cc1ccc(-c2c(C)cccc2C(=O)NCC2(c3nccn3C)NC(=O)NC2=O)cc1` (single isomer, unassigned; ent-4) [Example 134, Ent-4′,6-Dimethyl-N-{[4-(1-Methyl-1H-Imidazol-2-Yl)-2,5-Dioxoimidazoidin-4-Yl]Methyl}[1,1′-Biphenyl]-2-Carboxamide], half-maximal inhibition (IC50) required 1.4 µM. In the case of `O=C1NC(=O)C(CNC(=O)c2ccccc2-c2ccc(C(F)(F)F)cc2)(c2ccnn2C(F)F)N1` (racemic) [Example 260, Rac-N-({4-[1-(Difluoromethyl)-1H-Pyrazol-5-Yl]-2,5-Dioxoimidazolidin-4-Yl}Methyl)-4′-(Trifluoromethyl)[Biphenyl]-2-Carboxamide] it was 17 µM.

Compound `Cc1cccc(C(=O)NCC2(c3nccn3C)NC(=O)NC2=O)c1-c1ccc(C(F)(F)F)cc1` (single isomer, unassigned; ent-6) [Example 133, Ent-6-Methyl-N-{[4-(1-Methyl-1H-Imidazol-2-Yl)-2,5-Dioxoimidazolidin-4-Yl]Methyl}-4′-(Trifluoromethyl)[1,1′-Biphenyl]-2-Carboxamide] came in with an IC50 of 1.6 µM. Under `Cc1c(C2(CNC(=O)c3ccc(Cl)cc3-c3ccc(C(F)(F)F)cc3)NC(=O)NC2=O)cnn1C` (racemic) [Example 33, Rac-5-Chloro-N-{[4-(1,5-Dimethyl-1H-Pyrazol-4-Yl)-2,5-Dioxoimidazolidin-4-Yl]Methyl}-4′-(Trifluoromethyl)[Biphenyl]-2-Carboxamide] stands 5.2 µM.

Consider `Cc1ccc(-c2ccccc2C(=O)NC[C@@]2(C3CC3)NC(=O)NC2=O)cn1` [Example 228, N-{[(4R)-4-Cyclopropyl-2,5-Dioxoimidazolidin-4-Yl]Methyl}-2-(6-Methylpyridin-3-Yl)Benzamide], for which the IC50 turned out to be 20 µM.

`O=C1NC(=O)[C@](CNC(=O)c2ccc(F)cc2-c2ccc(Cl)cc2)(C2CC2)N1` [Example 126, 4′-Chloro-N-{[(4R)-4-Cyclopropyl-2,5-Dioxoimidazolidin-4-Yl]Methyl}-5-Fluoro[Biphenyl]-2-Carboxamide] came in with an IC50 of 11 µM. `Cc1ncoc1C1(CNC(=O)c2ccccc2-c2ccc(C(F)(F)F)cc2)NC(=O)NC1=O` (racemic) [Example 43, Rac-N-{[4-(4-Methyl-1,3-Oxazol-5-Yl)-2,5-Dioxoimidazolidin-4-Yl]Methyl}-4′-(Trifluoromethyl)[Biphenyl]-2-Carboxamide] yielded an IC50 of 28 µM. Under `Cn1nccc1C1(CNC(=O)c2ccc(F)cc2-c2ccc(C(F)(F)F)cc2)NC(=O)NC1=O` (racemic) [Example 183, Rac-5-Fluoro-N-{[4-(1-Methyl-1H-Pyrazol-5-Yl)-2,5-Dioxoimidazolidin-4-Yl]Methyl}-4′-(Trifluoromethyl)[Biphenyl]-2-Carboxamide] stands 19 µM; under `Cc1ccc(-c2ncccc2C(=O)NC[C@@]2(C3CC3)NC(=O)NC2=O)cc1` [Example 132, N-{[(4R)-4-Cyclopropyl-2,5-Dioxoimidazolidin-4-Yl]Methyl}-2-(4-Methylphenyl)Nicotinamide], 36 µM; under `O=C1NC(=O)[C@](CNC(=O)c2ccc(F)c(F)c2-c2ccc(C(F)(F)F)nc2)(C2CC2)N1` [Example 76, N-{[(4R)-4-Cyclopropyl-2,5-Dioxoimidazolidin-4-Yl]Methyl}-3,4-Difluoro-2-[6-(Trifluoromethyl)Pyridin-3-Yl]Benzamide], 14 µM. Turning to `Cc1ccc(C(=O)NCC2(c3ncsc3C)NC(=O)NC2=O)c(-c2ccc(C(F)(F)F)cc2)c1` (racemic) [Example 167, Rac-5-Methyl-N-{[4-(5-Methyl-1,3-Thiazol-4-Yl)-2,5-Dioxoimidazolidin-4-Yl]Methyl}-4′-(Trifluoromethyl)[Biphenyl]-2-Carboxamide], 4.4 µM corresponded to half-maximal inhibition (IC50). Under `Cc1nsnc1C1(CNC(=O)c2ccccc2-c2ccc(C(F)(F)F)cc2)NC(=O)NC1=O` (racemic) [Example 62, Rac-N-{[4-(4-Methyl-1,2,5-Thiadiazol-3-Yl)-2,5-Dioxoimidazolidin-4-Yl]Methyl}-4′-(Trifluoromethyl)[Biphenyl]-2-Carboxamide] stands 26 µM; under `Cc1cnsc1C1(CNC(=O)c2ccccc2-c2ccc(C(F)(F)F)cc2)NC(=O)NC1=O` (racemic) [Example 97, Rac-N-{[4-(4-Methyl-1,2-Thiazol-5-Yl)-2,5-Dioxoimidazolidin-4-Yl]Methyl}-4′-(Trifluoromethyl)[Biphenyl]-2-Carboxamide], 7.2 µM. Under `Cc1sc(C(F)(F)F)nc1C1(CNC(=O)c2ccc(F)cc2-c2ccc(C(F)(F)F)cc2)NC(=O)NC1=O` (racemic) [Example 303, Rac-5-Fluoro-N-({4-[5-Methyl-2-(Trifluoromethyl)-1,3-Thiazol-4-Yl]-2,5-Dioxoimidazolidin-4-Yl}Methyl)-4′-(Trifluoromethyl)[Biphenyl]-2-Carboxamide] stands 38 µM; under `CC1(CNC(=O)c2ccccc2-c2ccc(C(F)(F)F)cc2)NC(=O)NC1=O` (racemic) [Example 95, Rac-N-[(4-Methyl-2,5-Dioxoimidazolidin-4-Yl)Methyl]-4′-(Trifluoromethyl)[Biphenyl]-2-Carboxamide], more than 50 µM. In the case of `CC(C)(C#N)c1ccc(-c2ccccc2C(=O)NC[C@@]2(C3CC3)NC(=O)NC2=O)cc1` [Example 123, 4′-(2-Cyanopropan-2-Yl)-N-{[(4R)-4-Cyclopropyl-2,5-Dioxoimidazolidin-4-Yl]Methyl}[Biphenyl]-2-Carboxamide] it was 19 µM; in that of `O=C1NC(=O)C(CNC(=O)c2ccccc2-c2ccc(C(F)(F)F)nc2)(C2CCOCC2)N1` (racemic) [Example 36, Rac-N-{[2,5-Dioxo-4-(Tetrahydro-2H-Pyran-4-Yl)Imidazolidin-4-Yl]Methyl}-2-[6-(Trifluoromethyl)Pyridin-3-Yl]Benzamide], more than 50 µM; in that of `O=C1NC(=O)C(CNC(=O)c2ccccc2-c2ccc(C(F)(F)F)cc2)(c2ncccc2C(F)(F)F)N1` (racemic) [Example 243, Rac-N-({2,5-Dioxo-4-[3-(Trifluoromethyl)Pyridin-2-Yl]Imidazolidin-4-Yl}Methyl)-4′-(Trifluoromethyl)[Biphenyl]-2-Carboxamide], 45 µM.

Take `Cn1ccnc1C1(CNC(=O)c2ccccc2-c2ccc(C(F)(F)F)cc2)NC(=O)NC1=O` (stereo not drawn) [Example 148, Ent-N-{[4-(1-Methyl-1H-Imidazol-2-Yl)-2,5-Dioxoimidazolidin-4-Yl]Methyl}-4′-(Trifluoromethyl)[Biphenyl]-2-Carboxamide]: the concentration for half-maximal inhibition (IC50) turned out to be 1.84 µM. Under `Cc1scnc1C1(CNC(=O)c2ccc(F)cc2-c2ccc(Cl)cc2)NC(=O)NC1=O` (racemic) [Example 169, Rac-4′-Chloro-5-Fluoro-N-{[4-(5-Methyl-1,3-Thiazol-4-Yl)-2,5-Dioxoimidazolidin-4-Yl]Methyl}[Biphenyl]-2-Carboxamide] stands 8.5 µM; under `O=C1NC(=O)[C@](CNC(=O)c2ccc(C(F)(F)F)cc2-c2ccc(C3CC3)cc2)(C2CC2)N1` [Example 108, 4′-Cyclopropyl-N-{[(4R)-4-Cyclopropyl-2,5-Dioxoimidazolidin-4-Yl]Methyl}-5-(Trifluoromethyl)[Biphenyl]-2-Carboxamide], 19 µM; under `Cc1ccc(C(=O)NCC2(c3ncsc3C)NC(=O)NC2=O)c(-c2ccc(C(F)(F)F)cc2)c1` (single isomer, unassigned; ent-5) [Example 168, Ent-5-Methyl-N-{[4-(5-Methyl-1,3-Thiazol-4-Yl)-2,5-Dioxoimidazolidin-4-Yl]Methyl}-4′-(Trifluoromethyl)[Biphenyl]-2-Carboxamide], 1.9 µM. Under `Cc1nonc1C1(CNC(=O)c2ccccc2-c2ccc(C(F)(F)F)cc2)NC(=O)NC1=O` (stereo not drawn) [Example 73, Ent-N-{[4-(4-Methyl-1,2,5-Oxadiazol-3-Yl)-2,5-Dioxoimidazolidin-4-Yl]Methyl}-4′-(Trifluoromethyl)[Biphenyl]-2-Carboxamide] stands 20 µM. In the case of `Cc1ccc(-c2cccc(F)c2C(=O)NC[C@@]2(C3CC3)NC(=O)NC2=O)cc1` [Example 229, N-{[(4R)-4-Cyclopropyl-2,5-Dioxoimidazolidin-4-Yl]Methyl}-3-Fluoro-4′-Methyl[1,1′-Biphenyl]-2-Carboxamide] it was 20 µM; in that of `Cn1nccc1C1(CNC(=O)c2ccc(Cl)cc2-c2ccc(C(F)(F)F)nc2)NC(=O)NC1=O` (single isomer, unassigned; ent-4) [Example 289, Ent-4-Chloro-N-{[4-(1-Methyl-1H-Pyrazol-5-Yl)-2,5-Dioxoimidazolidin-4-Yl]Methyl}-2-[6-(Trifluoromethyl)Pyridin-3-Yl]Benzamide], 6.3 µM; in that of `Cn1nccc1C1(CNC(=O)c2ccc(C(F)F)cc2-c2ccc(C(F)(F)F)cc2)NC(=O)NC1=O` (single isomer, unassigned; ent-5) [Example 309, Ent-5-(Difluoromethyl)-N-{[4-(1-Methyl-1H-Pyrazol-5-Yl)-2,5-Dioxoimidazolidin-4-Yl]Methyl}-4′-(Trifluoromethyl)[Biphenyl]-2-Carboxamide], 2.7 µM.

Take `Cc1ccc(-c2ccccc2C(=O)NCC2(c3nccs3)NC(=O)NC2=O)cc1` (stereo not drawn) [Example 201, Ent-N-{[2,5-Dioxo-4-(1,3-Thiazol-2-Yl)Imidazolidin-4-Yl]Methyl}-4′-Methyl[Biphenyl]-2-Carboxamide]: half-maximal inhibition (IC50) was put at 8.1 µM. Under `COc1ccc(-c2ccccc2C(=O)NC[C@@]2(C3CC3)NC(=O)NC2=O)cc1` [Example 130, N-{[(4R)-4-Cyclopropyl-2,5-Dioxoimidazolidin-4-Yl]Methyl}-4′-Methoxy[Biphenyl]-2-Carboxamide] stands 17.3 µM. In the case of `O=C1NC(=O)C(CNC(=O)c2ccccc2-c2ccc(Cl)cc2)(C2CC(F)(F)C2)N1` (single isomer, unassigned; ent-4) [Example 247, Ent-4′-Chloro-N-{[4-(3,3-Difluorocyclobutyl)-2,5-Dioxoimidazolidin-4-Yl]Methyl}[Biphenyl]-2-Carboxamide] it was more than 50 µM.
